In publication PMC8621770, “New Compounds with Bioisosteric Replacement of Classic Choline Kinase Inhibitors Show Potent Antiplasmodial Activity” (Pharmaceutics, 2021):
Structures can show the parent of a compound that is named as a salt. Where two headings read alike, the source gives them in different places.

Key:
PfCK = molecular target: T1, PfCK (Plasmodium falciparum, UniProt Q8IM71); experiment: Spectrophotometric coupled enzymatic assay for PfCK activity (substrate choline); format: biochemical; details: for IC50: IC50 PfCK b (compound concentration required to inhibit PfCK enzyme by 50%), substrate choline 4 mM, ATP 2 mM
T1 construct: A truncated form of PfCK (Δ79-440) featuring an N-terminal 6× His-tag; 6xHis (N); host or cells: Escherichia coli BL21 (DE3) Star
Protocol: A truncated form of PfCK (Δ79-440) featuring an N-terminal 6× His-tag was purchased from Genescript (Piscataway, NJ, USA), cloned into a pET-28a vector and transformed into Escherichia coli BL21 (DE3) Star cells (Invitrogen, Carlsbad, CA, USA). The transformed bacteria were cultured in Luria-Bertani (LB) medium at 37 °C until OD600 = 0.6 and the expression was induced with 1 mM isopropyl β-D-1-thiogalactopyranoside (IPTG). The cell culture was grown overnight at 20 °C and 180 rpm. Cells were pelleted by centrifugation at 10,000 rpm, resuspended in 50 mM Tris/HCl pH 7.5, 500 mM NaCl, 0.2 mM phenylmethylsulphonyl fluoride (PMSF, Sigma Aldrich, St. Luis, MO, USA), DNase (Sigma Aldrich, St. Luis, MO, USA), 0.5 mM β-mercaptoethanol (Sigma Aldrich, St. Luis, MO, USA) and sonicated. Separation of the soluble from the insoluble fraction was obtained by centrifugation at 15,000 rpm and 4 °C. The target enzyme was purified by a two-step purification protocol. In the first step, the cell lysate was incubated for 45 min with Ni-NTA resin (Qiagen, Venlo, The Netherlands) in a gravity column. Then, the column was washed with 40 column volumes (CV) of 50 mM Tris/HCl pH 7.5, 300 mM NaCl, 10 mM imidazole and 1 CV of 50 mM Tris/HCl pH 7.5, 300 mM NaCl, 40 mM imidazole. Finally, the His-tagged enzyme was eluted from the column using a 50 mM Tris/HCl pH 7.5, 300 mM NaCl, 400 mM imidazole buffer. A subsequent size-exclusion chromatography step was implemented to further polish the sample using a HiPrep 26/60 Sephacryl 100 HR column (GE Healthcare, Little Chalfont, Buckinghamshire, UK) previously equilibrated with 20 mM Tris/HCl pH 7.5, 150 mM NaCl buffer. This second purification step afforded a pure protein sample. The protein production yield was estimated to be nearly 2.5 mg of recombinant enzyme per liter of bacterial culture.
A spectrophotometric 96-well plate assay for PfCK activity was established based on an assay previously described. The reaction mix was composed as follows: 100 mM Tris/HCl pH 7.5, 100 mM KCl, 10 mM MgCl2, 0.5 mM phosphoenolpyruvate, 0.25 mM NADH, 4 U of pyruvate kinase, 5 U lactate dehydrogenase, 2 mM ATP, 4 mM choline chloride and different concentrations of the selected compounds. All the necessary compounds for the assay were purchased from Sigma Aldrich (St. Luis, MO, USA) and the final assay volume was 200 μL. The enzymatic reaction was initiated by the addition of the enzyme at less than 10 nM concentration and the reaction rates were measured by monitoring the decrease in the absorbance at 340 nm for 20 min at room temperature using a Spark10M instrument (Tecan). Finally, the IC50 values for each compound were determined by plotting the enzyme fractional activity (f.a.) against the logarithm of compound concentration (log[I]). Curve-fitting was performed with a dose-response curve from Origin (OriginLab Corporation, Northampton, MA, USA), using the following equation: f.a.=1/1+10^logIC50−logI
All data points were collected in triplicate and the final dose-response curves were plotted with MATLAB (R2018a (9.4.0.813654), 2018, MathWorks, Natick, MA, USA). See curves in Figure S1 in Supplementary Materials.

P. falciparum strain 3D7 = experiment: Antimalarial activity, P. falciparum lactate dehydrogenase growth inhibition assay; format: cell-based, Plasmodium falciparum; details: for IC50: P. falciparum 3D7 in human erythrocytes, 72 h, LDH readout, read-out: IC50 a (In vitro IC50 values against P. falciparum); for fold decrease in antimalarial activity with respect to the reference compounds BR-23 / BR-25: Fg-9, Fa-21, Fg-14 vs BR-23, Ff-1, Ff-7, Ff-3 vs BR-25; for fold decrease of antimalarial activity with respect to RSM932A: relative to RSM932A; for fold decrease in parasite lethality with respect to BR-31: relative to homologous BR-31
Protocol: Parasites of the P. falciparum strain 3D7 were grown in fresh group 0 positive human erythrocytes, obtained from the Centro Regional de Transfusion Sanguínea-SAS (Granada, Spain) and suspended at 5% haematocrit in RPMI 1640 containing 2% human serum, 0.2% NaHCO3, 0.5% Albumax II, 150 μM hypoxanthine, and […] gentamicin. Flasks were incubated at 37 °C, under 5% CO2 and 95% air mixture. […] The stock culture was then diluted with complete medium and non-parasitized erythrocytes to yield a haematocrit of 2% and parasitemia of 0.25%. Stock solutions of the test drugs were prepared at an initial concentration of 200 mM in DMSO, serially diluted and dispensed into triplicate in 96-well plates to yield final concentrations ranging from 0.0039 to 2 μM. The final well volume was 200 μL with a final concentration of DMSO 0.001%. Each plate also included positive growth controls, where only medium were added, and negative growth controls with 100 nM of chloroquine. […] A multidrop dispenser was used to add 50 μL of synchronized parasite culture per well. After 72 h of growth in presence of test compounds, the plates were stored frozen at −20 °C for at least 24 h. Next, they were thawed at room temperature. Parasite growth inhibition assays and IC50 determinations were carried out following the P. falciparum lactate dehydrogenase assay where parasite viability is quantified by measuring LDH activity upon APAD+ addition, a cofactor that is specific to the Plasmodium enzyme. To evaluate LDH activity, 140 μL of freshly made reaction mix, containing 143 mM sodium L-lactate, 143 μM APAD, 178.75 μM NBT, 1 U/mL diaphorase, 0.7% Tween 20 and 100 mM Tris-HCl (pH 8.0) were dispensed into plates. After 10 min of incubation in the dark at room temperature, absorbance was measured at 630 nm with a vmax precision multiwell plate reader from Molecular Devices, by using the accompanying SOFT maxPro software for analysis.

[1] = read-out: PfCK Fractional Activity at 25 µM
[2] = Plasmodium falciparum, Erythrocyte

T1 sequence (Q8IM71 entry or part of it): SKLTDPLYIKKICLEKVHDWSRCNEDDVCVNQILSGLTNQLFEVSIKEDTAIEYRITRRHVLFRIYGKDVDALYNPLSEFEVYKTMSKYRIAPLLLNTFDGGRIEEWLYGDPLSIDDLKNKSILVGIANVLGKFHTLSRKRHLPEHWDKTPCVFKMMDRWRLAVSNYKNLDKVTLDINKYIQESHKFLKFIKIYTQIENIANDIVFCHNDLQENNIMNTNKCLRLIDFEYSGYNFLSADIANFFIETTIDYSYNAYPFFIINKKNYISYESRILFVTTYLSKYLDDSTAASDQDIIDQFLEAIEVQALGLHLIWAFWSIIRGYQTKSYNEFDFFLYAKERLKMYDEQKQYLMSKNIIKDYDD

Row | Compound | remaining activity at 25 µM (PfCK; [1]) [%] | IC50 (P. falciparum strain 3D7; [2]) [µM] | melting point [°C] | further results
1 | c1cc2c(s1)c(N1CCCCCC1)cc[n+]2Cc1ccc(-c2ccc(C[n+]3ccc(N4CCCCCC4)c4sccc43)cc2)cc1 [Fg-10, 1,1’-([1,1’-biphenyl]-4,4’-diylbis(methylene))bis(7-(azepan-1-yl)thieno[3,2-b]pyridin-4-ium) bromide] | 44.7 ± 8.55 | 0.053 | – | –
2 | [Br-].[Br-].c1cc2c(s1)c(N1CCCCCC1)nc[n+]2Cc1ccc(CCc2ccc(C[n+]3cnc(N4CCCCCC4)c4sccc43)cc2)cc1 [Fa-23, 1,1’-((ethane-1,2-diylbis(4,1-phenylene))bis(methylene))bis(4-(azepan-1-yl)thieno[3,2-d]pyrimidin-1-ium) bromide] | – | 0.0678 | 321 to 323 | –
3 | c1cc2c(s1)c(N1CCCC1)cc[n+]2Cc1ccc(-c2ccc(C[n+]3ccc(N4CCCC4)c4sccc43)cn2)nc1 [Fg-12, 4,4’-([2,2’-bipypidine]-5,5’-diylbis(methylene))bis(7-(pyrrolidin-1-yl)thieno[3,2-b]pyridin-4-ium bromide)] | – | – | – | IC50 (P. falciparum strain 3D7): 0.305 µM
4 | [Br-].[Br-].c1cc2c(N3CCCC3)nc[n+](Cc3ccc(-c4ccc(C[n+]5cnc(N6CCCC6)c6ccsc65)cc4)cc3)c2s1 [Fg-14, 1,1’-([1,1’-biphenyl]-4,4’-diylbis(methylene))bis(4-(pyrrolidin-1-yl)thieno[2,3-d]pyrimidin-1-ium) bromide] | – | 0.0206 | 300 to 302 | fold decrease in antimalarial activity with respect to the reference compounds BR-23 / BR-25 (P. falciparum strain 3D7): 10 fold
5 | c1cc2c(s1)c(N1CCCCCC1)nc[n+]2Cc1ccc(OCCOc2ccc(C[n+]3cnc(N4CCCCCC4)c4sccc43)cc2)cc1 [Ff-34, 1,1′-(((ethane-1,2-diylbis(oxy))bis(4,1-phenylene))bis(methylene))bis(4-(azepan-1-yl)thieno[3,2-d]pyrimidin-1-ium) bromide] | 52.2 ± 12.4 | 0.0879 | – | remaining activity at 25 µM (PfCK; read-out: residual enzyme activity): 52.2%
6 | [Br-].[Br-].c1cc2c(s1)c(N1CCCC1)cc[n+]2Cc1ccc(CCCCc2ccc(C[n+]3ccc(N4CCCC4)c4sccc43)cc2)cc1 [Ff-1, 4,4’-((butane-1,4-diylbis(4,1-phenylene))bis(methylene))bis(7-(pyrrolidin-1-yl)thieno[3,2-b]pyridin-4-ium) bromide] | 47 ± 3.53 | 0.0901 | – | IC50 (PfCK): 10.9 ± 1.33 µM; fold decrease in antimalarial activity with respect to the reference compounds BR-23 / BR-25 (P. falciparum strain 3D7): 10 fold
7 | CN(c1ccccc1)c1nc[n+](Cc2ccc(-c3ccc(C[n+]4cnc(N(C)c5ccccc5)c5sccc54)cc3)cc2)c2ccsc12.[Br-].[Br-] [Fp-1, 1,1’-([1,1’-biphenyl]-4,4’-diylbis(methylene))bis(4-(methyl(phenyl)amino)thieno[3,2-d]pyrimidin-1-ium)bromide] | 12.9 ± 3.32 | 0.142 | – | IC50 (PfCK): 7.27 ± 0.23 µM; fold decrease of antimalarial activity with respect to RSM932A (P. falciparum strain 3D7): up to 10 fold; fold decrease in parasite lethality with respect to BR-31 (P. falciparum strain 3D7): 10 fold
8 | c1cc2c(s1)c(N1CCCCCC1)cc[n+]2Cc1ccc(-c2ccc(C[n+]3ccc(N4CCCCCC4)c4sccc43)cc2)cc1 (as salt: bromide) [Fg-10, 1,1’-([1,1’-biphenyl]-4,4’-diylbis(methylene))bis(7-(azepan-1-yl)thieno[3,2-b]pyridin-4-ium) bromide] | – | – | 220 to 222 | –
9 | c1cc2c(N3CCCCC3)nc[n+](Cc3ccc(-c4ccc(C[n+]5cnc(N6CCCCC6)c6ccsc65)cc4)cc3)c2s1 [Fg-30, 1,1’-([1,1’-biphenyl]-4,4’-diylbis(methylene))bis(4-(piperidin-1-yl)thieno[2,3-d]pyrimidin-1-ium) bromide] | 54.8 ± 7.2 | 0.0279 | – | –
10 | c1cc2c(s1)c(N1CCCCC1)nc[n+]2Cc1ccc(-c2ccc(C[n+]3cnc(N4CCCCC4)c4sccc43)cc2)cc1 [Fa-24, 1,1’-([1,1’-biphenyl]-4,4’-diylbis(methylene))bis(4-(piperidin-1-yl)thieno[3,2-d]pyrimidin-1-ium) bromide] | 57.1 ± 5.15 | 0.0578 | – | –
11 | [Br-].[Br-].c1cc2c(s1)c(N1CCCC1)nc[n+]2Cc1ccc(-c2ccc(C[n+]3cnc(N4CCCC4)c4sccc43)cc2)cc1 [Fa-21, 1,1’-([1,1’-biphenyl]-4,4’-diylbis(methylene))bis(4-(pyrrolidin-1-yl)thieno[3,2-d]pyrimidin-1-ium) bromide] | – | 0.0137 | 312 to 315 | fold decrease in antimalarial activity with respect to the reference compounds BR-23 / BR-25 (P. falciparum strain 3D7): 10 fold
12 | CN(c1ccc(Cl)cc1)c1nc[n+](Cc2ccc(-c3ccc(C[n+]4cnc(N(C)c5ccc(Cl)cc5)c5ccsc54)cc3)cc2)c2sccc12.[Br-].[Br-] [Fp-8, 1,1’-([1,1’-biphenyl]-4,4’-diylbis(methylene))bis(4-((4-chlorophenyl)(methyl)amino)thieno[2,3-d]pyrimidin-1-ium) bromide] | 8.1 ± 5.8 | 0.282 | – | IC50 (PfCK): 4.17 ± 0.48 µM; fold decrease of antimalarial activity with respect to RSM932A (P. falciparum strain 3D7): up to 10 fold; fold decrease in parasite lethality with respect to BR-31 (P. falciparum strain 3D7): 10 fold
13 | [Br-].[Br-].c1cc2c(N3CCCC3)nc[n+](Cc3ccc(CCCCc4ccc(C[n+]5cnc(N6CCCC6)c6ccsc65)cc4)cc3)c2s1 [Ff-3, 1,1’-((butane-1,4-diylbis(4,1-phenylene))bis(methylene))bis(4-(pyrrolidin-1-yl)thieno[2,3-d]pyrimidin-1-ium) bromide] | – | 0.0388 | 288 to 290 | fold decrease in antimalarial activity with respect to the reference compounds BR-23 / BR-25 (P. falciparum strain 3D7): 10 fold
14 | [Br-].[Br-].c1cc2c(N3CCCCC3)nc[n+](Cc3ccc(CCCCc4ccc(C[n+]5cnc(N6CCCCC6)c6ccsc65)cc4)cc3)c2s1 | – | – | 282 to 284 | –
15 | [Br-].[Br-].c1cc2c(N3CCCCCC3)nc[n+](Cc3ccc(CCc4ccc(C[n+]5cnc(N6CCCCCC6)c6ccsc65)cc4)cc3)c2s1 [Fg-19, 1,1’-((ethane-1,2-diylbis(4,1-phenylene))bis(methylene))bis(4-(azepan-1-yl)thieno[2,3-d]pyrimidin-1-ium) bromide] | – | 0.0715 | 298 to 300 | –
